Assay [1] deals with T1, human recombinant GABAAR containing α5β3γ2 subunits (benzodiazepine site) (Homo sapiens, UniProt P18507+P31644).
T1 construct: expressed in transfected cells; host or cells: mouse L(tk−) cells, dexamethasone-inducible vector pMSGneo
The experiment in a line: In vitro radioligand binding assay (α5-GABAAR Ki). The following applies: inhibition of [3H]Ro15-1788 binding, membranes of L(tk−) cells expressing human α5β3γ2; read-out: α5-GABAAR Ki. Put shortly:
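Membranes from mouse L(tk^−) cells stably expressing human α5β3γ2 GABAAR incubated 1 h at 4° C with 4 nM [^3H]Ro15-1788 and test compound; nonspecific binding with 1 μM TP003. Filter-bound radioactivity counted; Ki from IC50 by Cheng-Prusoff using measured Kd.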

The target in assay [2] is T2, human α5β3γ2 GABAARs in mouse L(tk−) cells (Homo sapiens, UniProt P18507+P31644).
T2 construct: expressed in transfected cells; host or cells: mouse L(tk−) cells, dexamethasone-inducible vector pMSGneo
The experiment in a line: In vitro electrophysiological recording assay (α5-GABAAR relative efficacy), QPatch. The class given is cell-based. The following applies: GABA EC10-20. Put shortly: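 Whole-cell QPatch recordings at 20-22° C, −65 mV holding, in dexamethasone-induced (1 μM, 24 h) L(tk−) cells. Compound pre-applied ≥1 min, then co-applied with GABA EC10-20; percentage change in leak-corrected peak current, taken at ≥100× Ki, normalised to DMCM efficacy; 0.1% DMSO final.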
In general terms: In patch-clamp work, channel activity is measured electrically.

T2 sequence (P31644 32-462): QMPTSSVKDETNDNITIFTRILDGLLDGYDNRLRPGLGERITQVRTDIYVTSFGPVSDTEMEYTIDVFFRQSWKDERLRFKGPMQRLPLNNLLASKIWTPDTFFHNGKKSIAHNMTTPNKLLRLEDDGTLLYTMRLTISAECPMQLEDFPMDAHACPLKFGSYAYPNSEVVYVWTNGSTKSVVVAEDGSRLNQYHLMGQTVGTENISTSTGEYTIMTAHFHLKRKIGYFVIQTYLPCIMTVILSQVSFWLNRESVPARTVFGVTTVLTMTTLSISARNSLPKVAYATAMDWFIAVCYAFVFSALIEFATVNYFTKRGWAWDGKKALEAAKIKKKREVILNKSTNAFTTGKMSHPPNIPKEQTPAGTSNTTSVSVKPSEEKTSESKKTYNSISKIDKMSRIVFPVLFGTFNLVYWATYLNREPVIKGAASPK
T2 sequence (P28472 26-473 partner): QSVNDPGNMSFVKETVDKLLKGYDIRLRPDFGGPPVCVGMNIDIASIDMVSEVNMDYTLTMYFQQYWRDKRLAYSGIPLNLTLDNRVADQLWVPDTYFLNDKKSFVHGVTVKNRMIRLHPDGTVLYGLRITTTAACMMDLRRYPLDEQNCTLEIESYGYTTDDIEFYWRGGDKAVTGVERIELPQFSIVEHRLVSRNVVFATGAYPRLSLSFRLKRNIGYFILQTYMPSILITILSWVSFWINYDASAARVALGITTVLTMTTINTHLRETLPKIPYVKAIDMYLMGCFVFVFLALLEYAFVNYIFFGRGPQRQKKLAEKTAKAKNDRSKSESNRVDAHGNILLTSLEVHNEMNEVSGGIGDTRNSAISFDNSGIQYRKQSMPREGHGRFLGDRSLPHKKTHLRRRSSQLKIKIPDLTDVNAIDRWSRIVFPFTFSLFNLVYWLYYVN
T2 sequence (P18507 40-475): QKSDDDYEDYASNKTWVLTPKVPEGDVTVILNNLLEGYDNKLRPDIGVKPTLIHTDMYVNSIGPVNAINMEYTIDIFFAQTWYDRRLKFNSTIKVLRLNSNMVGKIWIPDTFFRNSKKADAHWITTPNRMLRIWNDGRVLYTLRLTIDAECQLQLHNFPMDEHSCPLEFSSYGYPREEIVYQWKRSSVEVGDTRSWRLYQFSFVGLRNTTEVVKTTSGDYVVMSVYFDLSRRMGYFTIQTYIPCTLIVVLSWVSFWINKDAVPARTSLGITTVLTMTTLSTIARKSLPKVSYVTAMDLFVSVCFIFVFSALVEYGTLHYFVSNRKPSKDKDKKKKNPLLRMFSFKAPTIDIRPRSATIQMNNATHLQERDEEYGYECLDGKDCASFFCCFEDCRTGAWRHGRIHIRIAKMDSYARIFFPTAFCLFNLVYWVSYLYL
T1 sequence (P31644 32-462): as the sequence (P31644 32-462) above
T1 sequence (P28472 26-473 partner): as the sequence (P28472 26-473 partner) above
T1 sequence (P18507 40-475): as the sequence (P18507 40-475) above

Usually Ki stands for the equilibrium dissociation constant of an inhibitor or competing ligand from its target. As to `COc1nc(-c2ccc(=O)n(C)c2)ccc1NC(=O)c1c(-c2ccccc2)noc1C` [Example 28, N-[2-Methoxy-6-(1-methyl-6-oxo-3-pyridyl)-3-pyridyl]-5-methyl-3-phenyl-isoxazole-4-carboxamide], in assay [1], the inhibition constant Ki is 5.2 nM. For the same molecule, the “α5-GABAAR Relative Efficacy (to DMCM), Qpatch” value (“α5-GABAAR Relative Efficacy” below) in assay [2] (Conc 1 μM) is −0.61.

Consider `COc1cc(-c2cncnc2)cnc1NC(=O)c1c(-c2ccccc2)noc1C` [Example 9, N-(3-Methoxy-5-pyrimidin-5-yl-2-pyridyl)-5-methyl-3-phenyl-isoxazole-4-carboxamide], for which the Ki in assay [1] turned out to be 3.2 nM. Further, the “α5-GABAAR Relative Efficacy” value in assay [2] (Conc 1 μM) was −0.21.

Turning to `COc1nc(-n2cnc(CN(C)C)c2)ccc1NC(=O)c1c(-c2ccccc2)noc1C` [Example 152, N-[6-[4-[(Dimethylamino)methyl]imidazol-1-yl]-2-methoxy-3-pyridyl]-5-methyl-3-phenyl-isoxazole-4-carboxamide], in assay [1], the Ki was 22.9 nM. In assay [2] (Conc 3 μM), the “α5-GABAAR Relative Efficacy” value was −0.27.

As for `COc1nc(-n2cncn2)ccc1NC(=O)c1c(-c2ccccc2)noc1C` [Example 46, N-[2-Methoxy-6-(1,2,4-triazol-1-yl)-3-pyridyl]-5-methyl-3-phenyl-isoxazole-4-carboxamide], the inhibition constant Ki in assay [1] was determined as 4.4 nM. Further, the “α5-GABAAR Relative Efficacy” value in assay [2] (Conc 1 μM) is reported as −0.69.

As for `COc1nc(-c2ccc3[nH]nc(N)c3c2)ccc1NC(=O)c1c(-c2ccccc2)noc1C` [Example 33, N-[6-(3-Amino-1H-indazol-5-yl)-2-methoxy-3-pyridyl]-5-methyl-3-phenyl-isoxazole-4-carboxamide], in assay [1], the inhibitory constant (Ki) was 15.8 nM. Further, in assay [2] (Conc 3 μM), the “α5-GABAAR Relative Efficacy” value is listed as −0.50.

Turning to `COc1nc(-c2ccc3nnn(C)c3c2)ccc1NC(=O)c1c(-c2ccccc2)noc1C` [Example 91, N-(2-Methoxy-6-(1-methyl-1H-benzo[d] [1,2,3]triazol-6-yl)pyridin-3-yl)-5-methyl-3-phenylisoxazole-4-carboxamide], the Ki in assay [1] came to 10.1 nM. Further, in assay [2] (Conc 3 μM), the “α5-GABAAR Relative Efficacy” value is listed as −0.45.

Regarding `COc1nc(-c2ccncc2)ccc1NC(=O)c1c(-c2ccccc2)noc1C` [Example 42, N-(6-Methoxy-[2,4′-bipyridin]-5-yl)-5-methyl-3-phenylisoxazole-4-carboxamide], the Ki in assay [1] was 2.8 nM. Also, the “α5-GABAAR Relative Efficacy” value in assay [2] (Conc 0.3 μM) is −0.60.

As for `COc1nc(-c2c[nH]c(=O)c(F)c2)ccc1NC(=O)c1c(C)nnn1-c1ccccc1` [Example 164, N-(5′-Fluoro-6-methoxy-6′-oxo-1′,6′-dihydro-[2,3′-bipyridin]-5-yl)-4-methyl-1-phenyl-1H-1,2,3-triazole-5-carboxamide], in assay [1], the Ki came out at 27.2 nM. In addition, in assay [2] (Conc 3 μM), the “α5-GABAAR Relative Efficacy” value was −0.65.

Regarding `COc1nc(-c2cnc3n2CCOC3)cnc1NC(=O)c1c(-c2ccccc2)noc1C` [Example 155, N-[5-(6,8-Dihydro-5H-imidazo[2,1-c][1,4]oxazin-3-yl)-3-methoxy-pyrazin-2-yl]-5-methyl-3-phenyl-isoxazole-4-carboxamide], the inhibitory constant (Ki) in assay [1] turned out to be 2.3 nM. In addition, the “α5-GABAAR Relative Efficacy” value in assay [2] (Conc 0.3 μM) is −0.91.

As to `COc1nc(-c2ccc3c(c2)COC(=O)N3)ccc1NC(=O)c1c(-c2ccccc2)noc1C` [Example 119, N-(2-Methoxy-6-(2-oxo-1,4-dihydro-2H-benzo[d] [1,3]oxazin-6-yl)pyridin-3-yl)-5-methyl-3-phenylisoxazole-4-carboxamide], the Ki in assay [1] worked out at 13.8 nM. In assay [2] (Conc 3 μM), the “α5-GABAAR Relative Efficacy” value is −0.63.

The values above are taken from patent US20240425491A1, “HETEROARYL COMPOUNDS USEFUL IN THE TREATMENT OF COGNITIVE DISORDERS” (University College Cardiff Consultants Limited, priority 2021, published 2024).
